Test results taken from paper PMC7910394, “Design of PSMA ligands with modifications at the inhibitor part: an approach to reduce the salivary gland uptake of radiolabeled PSMA inhibitors?” (EJNMMI Radiopharmacy and Chemistry, 2021).

Assays:
LNCaP cells = test: Internalization study of 177Lu-labeled ligands in LNCaP cells, normalized to ([125I]I-BA)KuE; assay type: cell-based, human; conditions: 1 h, 37 °C, 1.0 nM 177Lu-compound, normalized to ([125I]I-BA)KuE
Description: PSMA-positive LNCaP cells (300265; Cell Lines Service, Eppelheim, Germany) were cultivated in Dulbecco’s modified Eagle medium/Nutrition Mixture F-12 with GlutaMAX (1/1, DMEM-F12, Thermo Fisher Scientific, Darmstadt, Germany) supplemented with 10% fetal bovine serum (Merck KGaA, Darmstadt, Germany) and kept at 37 °C in a humidified 5% CO2 atmosphere. One day (24 ± 2 h) prior to all in vitro experiments, the cultivated LNCaP cells were harvested using a mixture of trypsin/ethylenediamine-tetraacetic acid (0.05%/0.02%) in PBS (Thermo Fisher Scientific, Darmstadt, Germany) and centrifuged at 1300 rpm (ca. 190×g) for 3 min at room temperature (Heraeus Megafuge 16, Thermo Fisher Scientific, Darmstadt, Germany). After centrifugation, the supernatant was disposed and the cell pellet was resuspended in culture medium. Cells were counted with a Neubauer hemocytometer (Paul Marienfeld GmbH & Co. KG, Lauda-Königshofen, Germany) and seeded in 24-well plates.
Detailed information on affinity and internalization experiments is provided in the supporting information. […] IC50 values of (^natI-BA)KuE were determined on the same day for monitoring assay performance and to identify abnormal deviations in uptake and/or affinity. […] Data were corrected for non-specific binding and normalized to the specific internalization observed for the radioiodinated reference compound (n = 3).
The culture medium was removed and the cells were washed with 500 µL of DMEM-F12 containing 5% BSA. Afterwards, 200 µL of DMEM-F12 (5% BSA) were added to each well and left to equilibrate at 37 °C for 15 min. 25 µL of DMEM-F12 (5% BSA) were added to each well, followed by the addition of 25 µL of the respective ^177Lu-labeled ligand (10.0 nM in DMEM-F12 (5% BSA)). For blocking PSMA-specific binding and uptake, 25 µL of 2-(phosphonomethyl)pentane-1,5-dioic acid (2-PMPA) (100 µM in DMEM (5% BSA)) instead of DMEM-F12 (5% BSA) were added prior to radiotracer addition. […] Each experiment (control and blockade) was performed in triplicate. […] Incubation was terminated by placing the plate on ice (4 °C, 1 min) and removal of the incubation medium. The cells were washed with 250 µL of ice-cold PBS and the wash medium was combined with the respective supernatant. This fraction represents the amount of free radioligand. 250 µL of ice-cold 2-PMPA (10 µM in PBS) were added and the cells were incubated for 10 min at 4 °C. Afterwards, the cells were rinsed again with 250 µL of ice-cold PBS and the wash medium was combined with the respective supernatant. This fraction represents the amount of cell surface-bound ligand. In the last step, the cells were lysed by addition of 250 µL of 1 M aqueous NaOH. After 20 min, the lysate of each well was transferred to the respective vial as well as 250 µL of 1 M NaOH used for rinsing the well. This fraction represents the amount of internalized radioligand. Quantification of the amount of free, cell surface-bound and internalized activity was performed in a γ-counter.

[1] = Lipophilicity (log D), shake-flask method; assay type: physicochemical; conditions: from log D values
Description: The log D values were determined, using the shake-flask method as previously described (Wurzer et al. [2020]). The radiolabeled tracer (0.5–1 MBq, 20 μL) was dissolved in 1 mL of a 1/1 mixture (v/v) of PBS (pH 7.4) and n-octanol in a reaction vial (n = 6). After vigorous mixing of the suspension for 3 min at r.t., the vial was centrifuged at 9000 rpm (ca. 7700×g) for 5 min at room temperature (Heraeus Biofuge 15, Thermo Fisher Scientific, Darmstadt, Germany) and 150 μL aliquots of both layers were measured in a ɣ-counter.

Structure (SMILES): CC(C)(C)[Si](F)(c1ccc(C(=O)NC[C@@H](NC(=O)CN2CCN(CC(=O)[O-])CCN(CC(=O)[O-])CCN(CC(=O)[O-])CC2)C(=O)N[C@H](CCCCNC(=O)CCC(=O)NCCC[C@@H](NC(=O)CC[C@H](NC(=O)N[C@@H](CCc2nnn[nH]2)C(=O)O)C(=O)O)C(=O)O)C(=O)O)cc1)C(C)(C)C.[Lu+3] [^natLu/[^177Lu]Lu-11]
- %Internalization compared to the reference (LNCaP cells): 1 h: 9.9 ± 3.2%
- %Internalization compared to the reference (LNCaP cells; listed as [^177Lu]Lu-11): 9.9 ± 3.2%
- increase of lipophilicity compared to [177Lu]Lu-1 [1]: ~ 7.4 fold
